Results as given in patent US20100221709A1, “METHODS FOR IDENTIFYING AGENTS THAT MODULATE APOPTOSIS IN CELLS THAT OVER-EXPRESS A BCL-2 FAMILY MEMBER PROTEIN” (priority 2005, published 2010).

Assays:
Bcl-xLΔC20 = biological target: T1, Bcl-xLΔC20 (Homo sapiens, UniProt Q07817); experiment: Calcein leakage from large unilamellar vesicles (pore formation); assay type: biochemical; conditions: 12 μM
T1 construct: poly-His (N); made in house
Description: The Bcl-xL protein has reversible pore-forming activity. Recombinant human Bcl-xL lacking the C-terminal 20-residue membrane anchor sequence, Bcl-xLΔC20, forms pores in large unilamellar vesicles. A reporter, calcein, can leak out of the vesicles through these pores.
Large unilamellar vesicles composed of 60% dioleoylphosphatidylcholine and 40% oleoylphosphatidylglycerol were prepared by the extrusion method of Mayer et al. (Biochim. Biophys. Acta 858:161-168 (1986)). Briefly, a dry film of lipid was resuspended in an aqueous solution containing 40 mM calcein (Molecular Probes, Eugene, Oreg.), 25 mM KCl and 10 mM HEPES (pH 7.0). […] The size of the vesicle suspension was measured by a Coulter N4 Plus-Sizer to confirm that the mean diameter of the vesicle sample was close to the expected size (100 nm). The osmolalities of all solutions were measured in a cryoscopic osmometer (Wescor Inc., Logan, Utah) and adjusted to 0.21 Osmol/kg by the addition of sodium chloride, as necessary. Lipid concentration was measured as described previously (Stewart, Anal. Biochem. 104:10-14 (1989)).
Calcein leakage was determined by adding 2-4 μg of purified Bcl-xLΔC20 (5 μg/ml, 161 nM) to a solution of 100 mM NaCl, 10 mM HEPES (pH 5.0) containing the large unilamellar vesicles (50 μM final lipid concentration) described above. […]

control mitochondria = experiment: Rhodamine 123 retention assay, isolated mitochondria; assay type: biochemical, murine; conditions: five minutes after addition
Description: (§1) Rh-123 is a cationic lipid-soluble fluorescent dye that accumulates in mitochondria in proportion to the mitochondrial membrane potential. Mitochondria were isolated from TABX2S cells (over-expressing Bcl-xL) and from control cells, prepared as described in Example 2. The isolated mitochondria were loaded with Rh-123 by incubation with 10 μM Rh-123 for 30 minutes, washing and resuspention in buffer. […] Less than 40% of Rh-123 was retained in antimycin A-treated TABX2S mitochondria, compared with greater than 80% retained in control mitochondria.

[1] = test system: mitochondria from TABX2S cells; experiment: as above; assay type: biochemical, murine; conditions: five minutes after addition
Description: as §1

[2] = test system: TAMH hepatocyte and RPMI-8226 myeloma cell lines; experiment: O2 consumption, Clark electrode; assay type: cell-based; conditions: 10 μM
Description: Respiratory rates of both cell lines were maintained through repeated additions of 10 μM 2-OMeAA, to a final concentration of 90 μM (FIG. 7A). […] The metabolic response to hypoxia is dominated by a shift to glycolytic metabolism characterized by increased rates of glucose uptake and reductive conversion of pyruvate to lactic acid. Real-time glucose consumption and lactate production by TAMH cells grown on microcarrier beads were monitored using a microsequential injection-lab on valve (μSI-LOV) system (Schulz et al., Analyst 127:1293-1298 (2002)). […] Since 2-OMeAA has no effect on cellular respiration at these concentrations, 2-OMeAA induces aerobic glycolysis in TAMH cells. The glycolytic response to 2-OMeAA was proportional to cellular Bcl-xL protein expression (FIG. 7C).

[3] = test system: myeloma cell lines (RPMI-8226, U266, NCI-H929); assay type: cell-based, human; conditions: 5 to 20 μg/ml
Description: Cell survival was assayed by exclusion of propidium iodide (PI) (10 mg/ml) by unfixed cells. Annexin V-FITC (Pharmingen) or 3,3′-dihexyloxacarbocyanine iodide (DiOC6(3)) (Molecular Probes) staining was analyzed together with PI to discriminate early apoptotic cells. Apoptotic cells were also measured as sub-G1 events among ethanol-fixed cells stained with […] PI. All cell samples were analyzed using a benchtop FACSCalibur® (Becton Dickinson, San Jose, Calif.) flow cytometer. Flow data were analyzed using MultiCycle AV software (Phoenix Flow Systems). For intracellular pH measurements, cell pellets were washed once and resuspended in 2 ml of HEPES-buffered medium (no phenol red and no serum). Carboxy-SNARF®-1 acetoxymethyl (AM) ester (Molecular Probes, 1 mM stock in DMSO, stored at −20° C.), a long wavelength fluorescent pH indicator, was added to a final concentration of 10 μM, and the cells were incubated for 30 min at 37° C. Following incubation with SNARF®-1 AM, cells were sedimented and the pellets were held on ice. Immediately before analysis, pellets were resuspended in Earle's balanced salt solution (experimental buffer) or high-[K^+] buffer containing nigericin (calibration samples).

T1 sequence (Q07817 1-213 limits assumed, stated change not applied): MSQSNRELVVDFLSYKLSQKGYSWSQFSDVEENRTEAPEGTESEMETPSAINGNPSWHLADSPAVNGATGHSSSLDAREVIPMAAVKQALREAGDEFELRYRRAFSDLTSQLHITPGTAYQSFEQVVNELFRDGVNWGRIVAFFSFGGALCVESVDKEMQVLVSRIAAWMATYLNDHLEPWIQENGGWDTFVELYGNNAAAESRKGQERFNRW

## antimycin A
Bcl-xLΔC20
  Bcl-xL pore-forming activity: completely blocked
Control mitochondria
  Rh-123 retained: greater than 80%
[1]
  Rh-123 retained: Less than 40%
[2]
  respiration dampened by: > 90%
[3]
  cytotoxicity, PI exclusion: sensitive
